Laboratory results as given in patent publication US20230365546A1, “5-SUBSTITUTED INDOLE 3-AMIDE DERIVATIVES, PREPARATION METHOD AND USE THEREOF” (ORIGIANT PHARMACEUTICAL CO., LTD, priority 2020, published 2023).

Key:
Assay in all cases: Kinase Profiler 10 μM panel
AAK1(h) = AAK1(h) (Homo sapiens (Human), UniProt Q2M2I8)
Description: (§1) In vitro kinase assays were conducted using Kinase Profiler services provided by Eurofins. The experimental method was as follows: the small molecule compound to be tested (0.001-10 μM), the protein kinase to be tested were incubated with a buffer containing substrate, 10 mM magnesium acetate, and [γ-^33P-ATP], the reaction was started by adding Mg\TPmix, after incubation for a period of time at room temperature, a 3% phosphate solution was added to the buffer to stop the reaction. Subsequently, 10 μL of the reaction mixture was quantitatively pipetted onto P30 filter paper, which was washed three times with 75 mM phosphate solution and then once with methanol. The P30 filter paper was air-dried and scintillation fluid was added for scintillation counting.

Arg(m) = Arg(m) (Mus musculus (Mouse), UniProt Q4JIM5)
Description: as §1

PIP4K2a(h) = PIP4K2a(h) (Homo sapiens (Human), UniProt P48426)
Description: as §1

Bmx(h) = Bmx(h) (Homo sapiens (Human), UniProt P51813)
Description: as §1

PKCζ(h) = PKCζ(h) (Homo sapiens (Human), UniProt Q05513)
Description: as §1

IR(h), activated = IR(h), activated (Homo sapiens (Human), UniProt P06213)
Description: as §1

IRE1(h) = IRE1(h) (Homo sapiens (Human), UniProt O75460)
Description: as §1

CaMKI(h) = CaMKI(h) (Homo sapiens (Human), UniProt Q14012)
Description: as §1

PKG1β(h) = PKG1β(h) (Homo sapiens (Human), UniProt Q13976)
Description: as §1

JAK2(h) = JAK2(h) (Homo sapiens (Human), UniProt O60674)
JAK2(h), sequence (O60674 whole entry): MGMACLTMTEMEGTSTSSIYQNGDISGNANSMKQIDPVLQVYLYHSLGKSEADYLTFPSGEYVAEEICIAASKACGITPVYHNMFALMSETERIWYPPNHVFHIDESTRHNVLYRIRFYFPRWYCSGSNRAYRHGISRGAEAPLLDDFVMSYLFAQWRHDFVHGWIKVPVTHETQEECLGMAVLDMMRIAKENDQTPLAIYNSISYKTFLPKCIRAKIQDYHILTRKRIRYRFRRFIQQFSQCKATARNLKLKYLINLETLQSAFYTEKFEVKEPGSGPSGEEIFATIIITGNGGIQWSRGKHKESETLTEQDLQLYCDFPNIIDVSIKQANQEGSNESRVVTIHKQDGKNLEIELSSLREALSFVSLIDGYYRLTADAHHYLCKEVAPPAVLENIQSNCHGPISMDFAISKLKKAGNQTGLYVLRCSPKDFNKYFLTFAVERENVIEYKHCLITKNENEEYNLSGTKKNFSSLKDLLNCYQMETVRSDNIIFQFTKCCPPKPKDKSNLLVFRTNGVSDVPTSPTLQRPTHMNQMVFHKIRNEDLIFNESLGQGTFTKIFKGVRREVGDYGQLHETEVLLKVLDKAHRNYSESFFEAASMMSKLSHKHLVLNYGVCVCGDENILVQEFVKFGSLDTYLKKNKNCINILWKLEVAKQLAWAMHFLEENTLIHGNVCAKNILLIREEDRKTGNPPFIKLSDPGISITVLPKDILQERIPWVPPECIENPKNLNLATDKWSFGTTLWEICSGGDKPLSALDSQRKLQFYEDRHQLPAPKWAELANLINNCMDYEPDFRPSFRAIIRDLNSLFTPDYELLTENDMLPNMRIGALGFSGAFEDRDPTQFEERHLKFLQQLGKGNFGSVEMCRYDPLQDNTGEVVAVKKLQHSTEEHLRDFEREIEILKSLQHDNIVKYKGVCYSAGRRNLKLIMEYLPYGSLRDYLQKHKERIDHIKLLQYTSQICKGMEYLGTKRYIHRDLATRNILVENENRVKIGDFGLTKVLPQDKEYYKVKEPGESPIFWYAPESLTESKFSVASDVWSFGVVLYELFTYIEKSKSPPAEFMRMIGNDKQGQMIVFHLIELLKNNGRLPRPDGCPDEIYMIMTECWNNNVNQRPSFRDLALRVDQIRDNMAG
Description: as §1

JAK3(h) = JAK3(h) (Homo sapiens (Human), UniProt P52333)
JAK3(h), sequence (P52333 whole entry): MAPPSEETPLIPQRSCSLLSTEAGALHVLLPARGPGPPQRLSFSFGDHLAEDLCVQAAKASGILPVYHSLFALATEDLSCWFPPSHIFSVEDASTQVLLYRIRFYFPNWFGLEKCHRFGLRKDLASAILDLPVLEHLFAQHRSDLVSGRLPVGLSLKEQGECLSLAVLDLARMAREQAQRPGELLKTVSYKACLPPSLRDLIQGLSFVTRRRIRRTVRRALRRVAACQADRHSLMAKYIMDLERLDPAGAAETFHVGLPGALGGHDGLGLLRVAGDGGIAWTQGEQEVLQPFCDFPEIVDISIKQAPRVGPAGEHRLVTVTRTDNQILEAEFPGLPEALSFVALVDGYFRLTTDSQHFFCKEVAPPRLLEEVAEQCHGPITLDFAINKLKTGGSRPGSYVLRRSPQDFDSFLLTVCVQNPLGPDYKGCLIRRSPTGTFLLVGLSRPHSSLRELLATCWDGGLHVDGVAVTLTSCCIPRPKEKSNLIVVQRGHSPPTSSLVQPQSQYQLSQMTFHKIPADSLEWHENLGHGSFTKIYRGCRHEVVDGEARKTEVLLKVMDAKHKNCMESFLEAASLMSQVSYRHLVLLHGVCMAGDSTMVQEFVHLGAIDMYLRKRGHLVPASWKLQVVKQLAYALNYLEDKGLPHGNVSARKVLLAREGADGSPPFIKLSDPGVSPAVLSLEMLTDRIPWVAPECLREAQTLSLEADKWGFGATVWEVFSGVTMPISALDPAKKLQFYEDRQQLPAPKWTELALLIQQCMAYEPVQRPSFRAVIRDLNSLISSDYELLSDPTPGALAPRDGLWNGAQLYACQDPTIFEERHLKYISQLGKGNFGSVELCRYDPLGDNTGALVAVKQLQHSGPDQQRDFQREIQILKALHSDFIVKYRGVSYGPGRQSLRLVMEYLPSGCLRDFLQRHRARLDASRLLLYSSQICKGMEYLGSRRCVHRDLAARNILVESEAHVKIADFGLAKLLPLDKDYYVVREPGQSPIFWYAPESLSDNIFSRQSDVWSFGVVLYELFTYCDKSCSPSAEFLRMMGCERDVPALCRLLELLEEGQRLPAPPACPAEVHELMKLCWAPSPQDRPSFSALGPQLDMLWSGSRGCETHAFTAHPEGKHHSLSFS
Description: as §1

CaMKIV(h) = CaMKIV(h) (Homo sapiens (Human), UniProt Q16566)
Description: as §1

JNK3(h) = JNK3(h) (Homo sapiens (Human), UniProt P53779)
Description: as §1

LKB1(h) = LKB1(h) (Homo sapiens (Human), UniProt Q15831)
Description: as §1

CDK5/p35(h) = CDK5/p35(h) (Homo sapiens (Human), UniProt Q00535)
CDK5/p35(h), sequence (Q00535 whole entry): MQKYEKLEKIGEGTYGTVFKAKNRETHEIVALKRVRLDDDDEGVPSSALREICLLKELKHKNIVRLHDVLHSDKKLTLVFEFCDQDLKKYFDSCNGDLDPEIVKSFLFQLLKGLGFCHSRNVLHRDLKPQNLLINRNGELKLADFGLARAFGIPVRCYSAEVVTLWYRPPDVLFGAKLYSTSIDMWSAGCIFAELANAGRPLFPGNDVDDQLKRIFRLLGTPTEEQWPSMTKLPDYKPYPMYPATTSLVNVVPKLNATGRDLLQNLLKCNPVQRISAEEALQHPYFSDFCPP
CDK5/p35(h), sequence (Q15078 whole entry partner): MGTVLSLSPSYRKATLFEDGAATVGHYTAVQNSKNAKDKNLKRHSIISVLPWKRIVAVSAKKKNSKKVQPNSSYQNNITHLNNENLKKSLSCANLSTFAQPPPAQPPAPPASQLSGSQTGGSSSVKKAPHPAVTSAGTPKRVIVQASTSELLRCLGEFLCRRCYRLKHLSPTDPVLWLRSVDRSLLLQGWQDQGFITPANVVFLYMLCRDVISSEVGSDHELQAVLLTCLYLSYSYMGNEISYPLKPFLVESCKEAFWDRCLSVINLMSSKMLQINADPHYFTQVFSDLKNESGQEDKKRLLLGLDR
Description: as §1

CDK6/cyclinD3(h) = CDK6/cyclinD3(h) (Homo sapiens (Human), UniProt Q00534)
Description: as §1

CDK7/cyclinH/MAT1(h) = CDK7/cyclinH/MAT1(h) (Homo sapiens (Human), UniProt P50613)
Description: as §1

Rsk1(r) = Rsk1(r) (Rattus norvegicus (Rat), UniProt Q63531)
Description: as §1

CDKL4(h) = CDKL4(h) (Homo sapiens (Human), UniProt Q5MAI5)
Description: as §1

CHK2(h) = CHK2(h) (Homo sapiens (Human), UniProt O96017)
Description: as §1

SIK3(h) = SIK3(h) (Homo sapiens (Human), UniProt Q9Y2K2)
Description: as §1

CK2(h) = CK2(h) (Homo sapiens (Human), UniProt P68400)
Description: as §1

CK2α2(h) = CK2α2(h) (Homo sapiens (Human), UniProt P19784)
Description: as §1

cKit(V560G)(h) = cKit(V560G)(h) (Homo sapiens (Human), UniProt P10721, V560G)
Description: as §1

STK16(h) = STK16(h) (Homo sapiens (Human), UniProt O75716)
Description: as §1

MSK1(h) = MSK1(h) (Homo sapiens (Human), UniProt O75582)
Description: as §1

DAPK2(h) = DAPK2(h) (Homo sapiens (Human), UniProt Q9UIK4)
Description: as §1

MST4(h) = MST4(h) (Homo sapiens (Human), UniProt Q9P289)
MST4(h), sequence (Q9P289 whole entry): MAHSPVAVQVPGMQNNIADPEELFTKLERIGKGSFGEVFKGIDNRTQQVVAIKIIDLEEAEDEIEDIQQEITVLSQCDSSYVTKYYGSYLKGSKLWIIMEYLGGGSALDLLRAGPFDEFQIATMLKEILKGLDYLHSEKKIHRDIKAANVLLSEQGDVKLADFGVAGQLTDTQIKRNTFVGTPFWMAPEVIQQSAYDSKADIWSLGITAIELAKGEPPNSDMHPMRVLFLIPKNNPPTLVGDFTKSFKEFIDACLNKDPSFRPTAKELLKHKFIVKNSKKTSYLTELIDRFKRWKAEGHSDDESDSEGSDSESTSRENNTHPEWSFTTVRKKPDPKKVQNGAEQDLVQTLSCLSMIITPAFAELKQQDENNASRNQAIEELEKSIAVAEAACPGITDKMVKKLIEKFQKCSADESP

DDR1(h) = DDR1(h) (Homo sapiens (Human), UniProt Q08345)
Description: as §1

EGFR(h) = EGFR(h) (Homo sapiens (Human), UniProt P00533)
Description: as §1

PAR-1Bα(h) = PAR-1Bα(h) (Homo sapiens (Human), UniProt Q7KZI7)
Description: as §1

FAK(h) = FAK(h) (Homo sapiens (Human), UniProt Q05397)
Description: as §1

FGFR1(h) = FGFR1(h) (Homo sapiens (Human), UniProt P11362)
Description: as §1

FGFR3(h) = FGFR3(h) (Homo sapiens (Human), UniProt P22607)
Description: as §1

Bmx(h), sequence (P51813 whole entry): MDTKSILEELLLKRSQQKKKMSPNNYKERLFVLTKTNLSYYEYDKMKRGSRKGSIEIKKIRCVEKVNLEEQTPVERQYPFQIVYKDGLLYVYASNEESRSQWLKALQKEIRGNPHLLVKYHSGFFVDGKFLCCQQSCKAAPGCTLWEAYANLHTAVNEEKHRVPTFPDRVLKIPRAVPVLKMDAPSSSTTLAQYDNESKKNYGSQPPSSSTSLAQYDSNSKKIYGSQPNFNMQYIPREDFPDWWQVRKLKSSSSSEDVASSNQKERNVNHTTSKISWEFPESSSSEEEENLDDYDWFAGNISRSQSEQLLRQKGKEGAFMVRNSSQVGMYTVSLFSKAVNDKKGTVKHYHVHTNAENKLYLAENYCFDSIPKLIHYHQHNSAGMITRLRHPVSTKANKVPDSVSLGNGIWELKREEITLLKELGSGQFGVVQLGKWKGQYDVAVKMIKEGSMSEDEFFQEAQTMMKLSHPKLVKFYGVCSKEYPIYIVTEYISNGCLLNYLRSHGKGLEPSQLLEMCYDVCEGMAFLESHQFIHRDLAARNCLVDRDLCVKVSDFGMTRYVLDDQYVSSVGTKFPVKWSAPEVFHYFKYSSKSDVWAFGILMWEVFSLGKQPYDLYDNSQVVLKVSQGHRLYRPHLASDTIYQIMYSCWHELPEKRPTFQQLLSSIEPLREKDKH
AAK1(h), sequence (Q2M2I8 whole entry): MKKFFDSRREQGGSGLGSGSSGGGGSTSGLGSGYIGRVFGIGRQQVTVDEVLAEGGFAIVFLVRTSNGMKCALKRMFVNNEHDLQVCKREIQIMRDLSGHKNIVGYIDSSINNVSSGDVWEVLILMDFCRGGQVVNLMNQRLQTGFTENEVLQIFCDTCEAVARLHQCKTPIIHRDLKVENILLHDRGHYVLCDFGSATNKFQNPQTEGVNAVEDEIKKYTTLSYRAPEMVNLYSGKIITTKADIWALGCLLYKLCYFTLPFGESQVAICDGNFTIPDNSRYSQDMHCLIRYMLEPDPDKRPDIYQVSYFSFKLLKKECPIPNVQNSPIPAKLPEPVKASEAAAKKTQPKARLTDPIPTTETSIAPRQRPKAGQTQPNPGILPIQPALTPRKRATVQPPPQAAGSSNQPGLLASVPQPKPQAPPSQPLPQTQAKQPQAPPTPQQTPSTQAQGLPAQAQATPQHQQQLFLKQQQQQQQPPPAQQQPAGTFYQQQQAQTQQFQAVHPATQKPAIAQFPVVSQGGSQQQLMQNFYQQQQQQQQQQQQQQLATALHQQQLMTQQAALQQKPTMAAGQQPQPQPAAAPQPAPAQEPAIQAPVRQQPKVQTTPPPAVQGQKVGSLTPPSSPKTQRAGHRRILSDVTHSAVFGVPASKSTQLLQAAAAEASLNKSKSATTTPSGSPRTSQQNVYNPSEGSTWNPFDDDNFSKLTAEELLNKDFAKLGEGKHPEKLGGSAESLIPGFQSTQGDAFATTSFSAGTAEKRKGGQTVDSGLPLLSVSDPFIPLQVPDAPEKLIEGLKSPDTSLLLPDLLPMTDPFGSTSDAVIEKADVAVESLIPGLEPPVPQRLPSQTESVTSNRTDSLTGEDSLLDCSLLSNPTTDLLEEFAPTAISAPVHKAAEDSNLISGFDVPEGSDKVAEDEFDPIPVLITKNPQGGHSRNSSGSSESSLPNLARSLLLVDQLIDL

With C[C@H](NC(=O)c1c[nH]c2ccc(-c3ccc4nc(NC(=O)C5CC5)sc4c3)cc12)c1cccc(F)c1 [Compound 34, (S)-5-(2-(cyclopropanecarboxamido)benzo[d]thiazol-6-yl)-N-(1-(3-fluorophenyl)ethyl)-1H-indole-3-carboxamide] the Inhibition ratio (AAK1(h)) was 24%, the Inhibition ratio (Arg(m)) was 87% and the Inhibition ratio (PIP4K2a(h)) was 17%. For the same molecule, the Inhibition ratio (Bmx(h)) was 54%, the Inhibition ratio (PKCζ(h)) was 10% and the Inhibition ratio (IR(h), activated) was 13%. It also gave an Inhibition ratio (IRE1(h)) of 16%, an Inhibition ratio (CaMKI(h)) of 5% and an Inhibition ratio (PKG1β(h)) of 7%. The Inhibition ratio (JAK2(h)) was 11%, the Inhibition ratio (JAK3(h)) was 23% and the Inhibition ratio (CaMKIV(h)) was 20%. The Inhibition ratio (JNK3(h)) was 63%, the Inhibition ratio (LKB1(h)) was 6% and the Inhibition ratio (CDK5/p35(h)) was −7%. It also gave an Inhibition ratio (CDK6/cyclinD3(h)) of 6%, an Inhibition ratio (CDK7/cyclinH/MAT1(h)) of 3% and an Inhibition ratio (Rsk1(r)) of 45%. The Inhibition ratio (CDKL4(h)) was 56%, the Inhibition ratio (CHK2(h)) was 22% and the Inhibition ratio (SIK3(h)) was 23%. For the same molecule, the Inhibition ratio (CK2(h)) was −9%, the Inhibition ratio (CK2α2(h)) was 23% and the Inhibition ratio (cKit(V560G)(h)) was 88%. For the same molecule, the Inhibition ratio (STK16(h)) was 17%, the Inhibition ratio (MSK1(h)) was 53% and the Inhibition ratio (DAPK2(h)) was 13%. For the same molecule, the Inhibition ratio (MST4(h)) was 11%, the Inhibition ratio (DDR1(h)) was 51% and the Inhibition ratio (EGFR(h)) was 19%. It also gave an Inhibition ratio (PAR-1Bα(h)) of 2%, an Inhibition ratio (FAK(h)) of 33% and an Inhibition ratio (FGFR1(h)) of 72%. For the same molecule, the Inhibition ratio (FGFR3(h)) was 35%.

In the case of C[C@H](NC(=O)c1cn(C)c2ccc(-c3ccn4nc(NC(=O)C5CC5)nc4c3)cc12)c1cccc(F)c1 [Compound 94, (S)-5-(2-(cyclopropanecarboxamido)-[1,2,4]triazolo[1,5-a]pyridin-7-yl)-N-(1-(3-fluorophenyl)ethyl)-1-methyl-1H-indole-3-carboxamide], the Inhibition ratio/% (AAK1(h)) is reported as 2%, the Inhibition ratio/% (Arg(m)) is reported as 11% and the Inhibition ratio/% (PIP4K2a(h)) is reported as 7%. For the same molecule, the Inhibition ratio/% (Bmx(h)) was 34%, the Inhibition ratio/% (PKCζ(h)) was −2% and the Inhibition ratio/% (IR(h), activated) was 35%. It also gave an Inhibition ratio/% (IRE1(h)) of 22%, an Inhibition ratio/% (CaMKI(h)) of 49% and an Inhibition ratio/% (PKG1β(h)) of 0%. The Inhibition ratio/% (JAK2(h)) was 45%, the Inhibition ratio/% (JAK3(h)) was 38% and the Inhibition ratio/% (CaMKIV(h)) was 21%. The Inhibition ratio/% (JNK3(h)) was 40%, the Inhibition ratio/% (LKB1(h)) was 55% and the Inhibition ratio/% (CDK5/p35(h)) was −8%. The Inhibition ratio/% (CDK6/cyclinD3(h)) was 80%, the Inhibition ratio/% (CDK7/cyclinH/MAT1(h)) was 53% and the Inhibition ratio/% (Rsk1(r)) was 20%. It also gave an Inhibition ratio/% (CDKL4(h)) of 76%, an Inhibition ratio/% (CHK2(h)) of 8% and an Inhibition ratio/% (SIK3(h)) of 47%. For the same molecule, the Inhibition ratio/% (CK2(h)) was 44%, the Inhibition ratio/% (CK2α2(h)) was 25% and the Inhibition ratio/% (cKit(V560G)(h)) was 65%. For the same molecule, the Inhibition ratio/% (STK16(h)) was 20%, the Inhibition ratio/% (MSK1(h)) was −20% and the Inhibition ratio/% (DAPK2(h)) was 3%. For the same molecule, the Inhibition ratio/% (MST4(h)) was 12%, the Inhibition ratio/% (DDR1(h)) was 21% and the Inhibition ratio/% (EGFR(h)) was 10%. The Inhibition ratio/% (PAR-1Bα(h)) was 33%, the Inhibition ratio/% (FAK(h)) was −3% and the Inhibition ratio/% (FGFR1(h)) was 70%. It also gave an Inhibition ratio/% (FGFR3(h)) of 40%.
